Measurements taken from publication PMC5580309, “Molecular-scale features that govern the effects of O-glycosylation on a carbohydrate-binding module” (Chemical Science, 2015).
Bridge positions count the residues as written; N and C are the ends. Peptide text beside a SMILES is read from it. * marks the point of attachment. X2 = OC[C@H]1O[C@H](O[C@H]2[C@@H](O)[C@H](O)[C@@H](CO)O[C@@H]2*)[C@@H](O)[C@@H](O)[C@@H]1O; αMan = OC[C@H]1O[C@H](*)[C@@H](O)[C@@H](O)[C@@H]1O

Biological target: T1, thermolysin (Bacillus thermoproteolyticus, UniProt P00800)
T1 sequence (P00800 233-548): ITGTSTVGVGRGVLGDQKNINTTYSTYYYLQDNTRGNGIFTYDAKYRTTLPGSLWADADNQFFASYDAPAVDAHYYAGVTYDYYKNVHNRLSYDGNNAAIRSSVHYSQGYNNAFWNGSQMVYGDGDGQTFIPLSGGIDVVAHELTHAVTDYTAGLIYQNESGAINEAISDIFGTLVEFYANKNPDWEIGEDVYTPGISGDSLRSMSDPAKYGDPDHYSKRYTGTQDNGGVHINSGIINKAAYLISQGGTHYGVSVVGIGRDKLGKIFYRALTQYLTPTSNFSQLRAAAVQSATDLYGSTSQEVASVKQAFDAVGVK
Experiment: Proteolytic stability: half-life to thermolysin degradation
Assay type: in vitro ADME
Settings: for half-life: thermolysin (isolated protease), thermolysin degradation, mean of three trials ± SD, procedures as described previously (ESI ref 18); for Change in Half-Life to Thermolysin Degradation: glyco-variant minus its corresponding unglycosylated CBM (e.g. 2-1), *** not used in the correlation plot
Description: All error bars reported are standard deviations of data achieved from three separate trials.
cellulose that were determined in accordance with our procedures as described previously 18.
The results are presented as mean of three trials ± SD. *Denotes an averaged value of four trials

Compound	half-life [min]	Change in Half-Life to Thermolysin Degradation [min]
CC[C@H](C)[C@@H]1NC(=O)CNC(=O)CNC(=O)[C@@H](NC(=O)[C@H](CCC(N)=O)NC(=O)CNC(=O)[C@H](Cc2ccc(O)cc2)NC(=O)[C@H](Cc2c[nH]cn2)NC(=O)[C@H](CO)NC(=O)[C@H](CCC(N)=O)NC(=O)[C@@H](N)[C@@H](C)O)CSSC[C@@H]2NC(=O)[C@H]([C@@H](C)O)NC(=O)[C@H]([C@@H](C)O)NC(=O)CNC(=O)[C@H](CO)NC(=O)[C@H](C)NC(=O)[C@H](CSSC[C@@H](C(=O)N[C@@H](CC(C)C)C(=O)O)NC(=O)[C@H](CCC(N)=O)NC(=O)[C@H](CO)NC(=O)[C@H](Cc3ccc(O)cc3)NC(=O)[C@H](Cc3ccc(O)cc3)NC(=O)[C@@H]3CCCN3C(=O)[C@H](CC(N)=O)NC(=O)[C@H](CC(C)C)NC(=O)[C@H](C(C)C)NC(=O)[C@H](CCC(N)=O)NC2=O)NC(=O)[C@H](C(C)C)NC(=O)[C@H]([C@@H](C)O)NC(=O)[C@@H]2CCCN2C(=O)CNC(=O)[C@H](CO)NC(=O)[C@H](Cc2ccc(O)cc2)NC(=O)CNC1=O [CBM variant 1] (H-TQSHYGQCGGIGYSGPTVCASGTTCQVLNPYYSQCL-OH; disulfide 8-25, 19-35)	13.8 ± 1.2	
CC[C@H](C)[C@@H]1NC(=O)CNC(=O)CNC(=O)[C@@H](NC(=O)[C@H](CCC(N)=O)NC(=O)CNC(=O)[C@H](Cc2ccc(O)cc2)NC(=O)[C@H](Cc2c[nH]cn2)NC(=O)[C@H](CO[C@H]2O[C@H](CO)[C@@H](O)[C@H](O)[C@@H]2O)NC(=O)[C@H](CCC(N)=O)NC(=O)[C@@H](N)[C@@H](C)O)CSSC[C@@H]2NC(=O)[C@H]([C@@H](C)O)NC(=O)[C@H]([C@@H](C)O)NC(=O)CNC(=O)[C@H](CO)NC(=O)[C@H](C)NC(=O)[C@H](CSSC[C@@H](C(=O)N[C@@H](CC(C)C)C(=O)O)NC(=O)[C@H](CCC(N)=O)NC(=O)[C@H](CO)NC(=O)[C@H](Cc3ccc(O)cc3)NC(=O)[C@H](Cc3ccc(O)cc3)NC(=O)[C@@H]3CCCN3C(=O)[C@H](CC(N)=O)NC(=O)[C@H](CC(C)C)NC(=O)[C@H](C(C)C)NC(=O)[C@H](CCC(N)=O)NC2=O)NC(=O)[C@H](C(C)C)NC(=O)[C@H]([C@@H](C)O)NC(=O)[C@@H]2CCCN2C(=O)CNC(=O)[C@H](CO)NC(=O)[C@H](Cc2ccc(O)cc2)NC(=O)CNC1=O [CBM variant 2] (H-TQS(αMan)HYGQCGGIGYSGPTVCASGTTCQVLNPYYSQCL-OH; disulfide 8-25, 19-35)	65.4 ± 0.6	51.6
CC[C@H](C)[C@@H]1NC(=O)CNC(=O)CNC(=O)[C@@H](NC(=O)[C@H](CCC(N)=O)NC(=O)CNC(=O)[C@H](Cc2ccc(O)cc2)NC(=O)[C@H](Cc2c[nH]cn2)NC(=O)[C@H](CO[C@H]2O[C@H](CO)[C@@H](O)[C@H](O)[C@@H]2O[C@H]2O[C@H](CO)[C@@H](O)[C@H](O)[C@@H]2O)NC(=O)[C@H](CCC(N)=O)NC(=O)[C@@H](N)[C@@H](C)O)CSSC[C@@H]2NC(=O)[C@H]([C@@H](C)O)NC(=O)[C@H]([C@@H](C)O)NC(=O)CNC(=O)[C@H](CO)NC(=O)[C@H](C)NC(=O)[C@H](CSSC[C@@H](C(=O)N[C@@H](CC(C)C)C(=O)O)NC(=O)[C@H](CCC(N)=O)NC(=O)[C@H](CO)NC(=O)[C@H](Cc3ccc(O)cc3)NC(=O)[C@H](Cc3ccc(O)cc3)NC(=O)[C@@H]3CCCN3C(=O)[C@H](CC(N)=O)NC(=O)[C@H](CC(C)C)NC(=O)[C@H](C(C)C)NC(=O)[C@H](CCC(N)=O)NC2=O)NC(=O)[C@H](C(C)C)NC(=O)[C@H]([C@@H](C)O)NC(=O)[C@@H]2CCCN2C(=O)CNC(=O)[C@H](CO)NC(=O)[C@H](Cc2ccc(O)cc2)NC(=O)CNC1=O [CBM variant 3] (H-TQS(X2)HYGQCGGIGYSGPTVCASGTTCQVLNPYYSQCL-OH; disulfide 8-25, 19-35)	128 ± 3.6	114
CC[C@H](C)[C@@H]1NC(=O)CNC(=O)CNC(=O)[C@@H](NC(=O)[C@H](CCC(N)=O)NC(=O)CNC(=O)[C@H](Cc2ccc(O)cc2)NC(=O)[C@H](Cc2c[nH]cn2)NC(=O)[C@H](CO)NC(=O)[C@H](CCC(N)=O)NC(=O)[C@H](C)N)CSSC[C@@H]2NC(=O)[C@H]([C@@H](C)O)NC(=O)[C@H]([C@@H](C)O)NC(=O)CNC(=O)[C@H](CO)NC(=O)[C@H](C)NC(=O)[C@H](CSSC[C@@H](C(=O)N[C@@H](CC(C)C)C(=O)O)NC(=O)[C@H](CCC(N)=O)NC(=O)[C@H](CO)NC(=O)[C@H](Cc3ccc(O)cc3)NC(=O)[C@H](Cc3ccc(O)cc3)NC(=O)[C@@H]3CCCN3C(=O)[C@H](CC(N)=O)NC(=O)[C@H](CC(C)C)NC(=O)[C@H](C(C)C)NC(=O)[C@H](CCC(N)=O)NC2=O)NC(=O)[C@H](C(C)C)NC(=O)[C@H]([C@@H](C)O)NC(=O)[C@@H]2CCCN2C(=O)CNC(=O)[C@H](CO)NC(=O)[C@H](Cc2ccc(O)cc2)NC(=O)CNC1=O [CBM variant 4] (H-AQSHYGQCGGIGYSGPTVCASGTTCQVLNPYYSQCL-OH; disulfide 8-25, 19-35)	9.6 ± 1.2	
CC[C@H](C)[C@@H]1NC(=O)CNC(=O)CNC(=O)[C@@H](NC(=O)[C@H](CCC(N)=O)NC(=O)CNC(=O)[C@H](Cc2ccc(O)cc2)NC(=O)[C@H](Cc2c[nH]cn2)NC(=O)[C@H](CO[C@H]2O[C@H](CO)[C@@H](O)[C@H](O)[C@@H]2O)NC(=O)[C@H](CCC(N)=O)NC(=O)[C@H](C)N)CSSC[C@@H]2NC(=O)[C@H]([C@@H](C)O)NC(=O)[C@H]([C@@H](C)O)NC(=O)CNC(=O)[C@H](CO)NC(=O)[C@H](C)NC(=O)[C@H](CSSC[C@@H](C(=O)N[C@@H](CC(C)C)C(=O)O)NC(=O)[C@H](CCC(N)=O)NC(=O)[C@H](CO)NC(=O)[C@H](Cc3ccc(O)cc3)NC(=O)[C@H](Cc3ccc(O)cc3)NC(=O)[C@@H]3CCCN3C(=O)[C@H](CC(N)=O)NC(=O)[C@H](CC(C)C)NC(=O)[C@H](C(C)C)NC(=O)[C@H](CCC(N)=O)NC2=O)NC(=O)[C@H](C(C)C)NC(=O)[C@H]([C@@H](C)O)NC(=O)[C@@H]2CCCN2C(=O)CNC(=O)[C@H](CO)NC(=O)[C@H](Cc2ccc(O)cc2)NC(=O)CNC1=O [CBM variant 5] (H-AQS(αMan)HYGQCGGIGYSGPTVCASGTTCQVLNPYYSQCL-OH; disulfide 8-25, 19-35)	44.4 ± 7.2	34.8
CC[C@H](C)[C@@H]1NC(=O)CNC(=O)CNC(=O)[C@@H](NC(=O)[C@H](CCC(N)=O)NC(=O)CNC(=O)[C@H](Cc2ccc(O)cc2)NC(=O)[C@H](Cc2c[nH]cn2)NC(=O)[C@H](CO)NC(=O)[C@H](C)NC(=O)[C@@H](N)[C@@H](C)O)CSSC[C@@H]2NC(=O)[C@H]([C@@H](C)O)NC(=O)[C@H]([C@@H](C)O)NC(=O)CNC(=O)[C@H](CO)NC(=O)[C@H](C)NC(=O)[C@H](CSSC[C@@H](C(=O)N[C@@H](CC(C)C)C(=O)O)NC(=O)[C@H](CCC(N)=O)NC(=O)[C@H](CO)NC(=O)[C@H](Cc3ccc(O)cc3)NC(=O)[C@H](Cc3ccc(O)cc3)NC(=O)[C@@H]3CCCN3C(=O)[C@H](CC(N)=O)NC(=O)[C@H](CC(C)C)NC(=O)[C@H](C(C)C)NC(=O)[C@H](CCC(N)=O)NC2=O)NC(=O)[C@H](C(C)C)NC(=O)[C@H]([C@@H](C)O)NC(=O)[C@@H]2CCCN2C(=O)CNC(=O)[C@H](CO)NC(=O)[C@H](Cc2ccc(O)cc2)NC(=O)CNC1=O [CBM variant 6] (H-TASHYGQCGGIGYSGPTVCASGTTCQVLNPYYSQCL-OH; disulfide 8-25, 19-35)	9.6 ± 2.4	
CC[C@H](C)[C@@H]1NC(=O)CNC(=O)CNC(=O)[C@@H](NC(=O)[C@H](CCC(N)=O)NC(=O)CNC(=O)[C@H](Cc2ccc(O)cc2)NC(=O)[C@H](Cc2c[nH]cn2)NC(=O)[C@H](CO[C@H]2O[C@H](CO)[C@@H](O)[C@H](O)[C@@H]2O)NC(=O)[C@H](C)NC(=O)[C@@H](N)[C@@H](C)O)CSSC[C@@H]2NC(=O)[C@H]([C@@H](C)O)NC(=O)[C@H]([C@@H](C)O)NC(=O)CNC(=O)[C@H](CO)NC(=O)[C@H](C)NC(=O)[C@H](CSSC[C@@H](C(=O)N[C@@H](CC(C)C)C(=O)O)NC(=O)[C@H](CCC(N)=O)NC(=O)[C@H](CO)NC(=O)[C@H](Cc3ccc(O)cc3)NC(=O)[C@H](Cc3ccc(O)cc3)NC(=O)[C@@H]3CCCN3C(=O)[C@H](CC(N)=O)NC(=O)[C@H](CC(C)C)NC(=O)[C@H](C(C)C)NC(=O)[C@H](CCC(N)=O)NC2=O)NC(=O)[C@H](C(C)C)NC(=O)[C@H]([C@@H](C)O)NC(=O)[C@@H]2CCCN2C(=O)CNC(=O)[C@H](CO)NC(=O)[C@H](Cc2ccc(O)cc2)NC(=O)CNC1=O [CBM variant 7] (H-TAS(αMan)HYGQCGGIGYSGPTVCASGTTCQVLNPYYSQCL-OH; disulfide 8-25, 19-35)	16.2 ± 3	6.6
CC[C@H](C)[C@@H]1NC(=O)CNC(=O)CNC(=O)[C@@H](NC(=O)[C@H](CCC(N)=O)NC(=O)CNC(=O)[C@H](Cc2ccc(O)cc2)NC(=O)[C@H](C)NC(=O)[C@H](CO)NC(=O)[C@H](CCC(N)=O)NC(=O)[C@@H](N)[C@@H](C)O)CSSC[C@@H]2NC(=O)[C@H]([C@@H](C)O)NC(=O)[C@H]([C@@H](C)O)NC(=O)CNC(=O)[C@H](CO)NC(=O)[C@H](C)NC(=O)[C@H](CSSC[C@@H](C(=O)N[C@@H](CC(C)C)C(=O)O)NC(=O)[C@H](CCC(N)=O)NC(=O)[C@H](CO)NC(=O)[C@H](Cc3ccc(O)cc3)NC(=O)[C@H](Cc3ccc(O)cc3)NC(=O)[C@@H]3CCCN3C(=O)[C@H](CC(N)=O)NC(=O)[C@H](CC(C)C)NC(=O)[C@H](C(C)C)NC(=O)[C@H](CCC(N)=O)NC2=O)NC(=O)[C@H](C(C)C)NC(=O)[C@H]([C@@H](C)O)NC(=O)[C@@H]2CCCN2C(=O)CNC(=O)[C@H](CO)NC(=O)[C@H](Cc2ccc(O)cc2)NC(=O)CNC1=O [CBM variant 8] (H-TQSAYGQCGGIGYSGPTVCASGTTCQVLNPYYSQCL-OH; disulfide 8-25, 19-35)	13.2 ± 3.6	
